Converted amounts (≈) assume the structure as drawn.
Assays:
Format in all cases: functional
Staphylococcus aureus [1] = assay: Antibacterial activity against multi drug-resistant Staphylococcus aureus 1199B after 18 hrs by MTT assay
Staphylococcus aureus [2] = assay: Antibacterial activity against epidemic methicillin-resistant Staphylococcus aureus 16 after 18 hrs by MTT assay; conditions: Staphylococcus aureus, 16, 18 h
Staphylococcus aureus [3] = assay: Antibacterial activity against epidemic methicillin-resistant Staphylococcus aureus 15 after 18 hrs by MTT assay; conditions: Staphylococcus aureus, 15, 18 h
Staphylococcus aureus [4] = assay: Antibacterial activity against multi drug-resistant Staphylococcus aureus XU212 after 18 hrs by MTT assay; conditions: XU212, 18 h
Staphylococcus aureus [5] = assay: Antibacterial activity against erythromycin-resistant Staphylococcus aureus RN4220 after 18 hrs by MTT assay; conditions: RN4220, 18 h
Staphylococcus aureus [6] = assay: Antibacterial activity against Staphylococcus aureus ATCC […] after 18 hrs by MTT assay

Row | SMILES | MIC (Staphylococcus aureus [1]) | MIC (Staphylococcus aureus [2]) | MIC (Staphylococcus aureus [3]) | MIC (Staphylococcus aureus [4]) | MIC (Staphylococcus aureus [5]) | MIC (Staphylococcus aureus [6])
1 | COc1cc(O)c(C(=O)CC(C)C)c(O)c1C [ASPIDINOL C] | 2 µg/mL (≈ 8.39 µM) | 4 µg/mL (≈ 16.8 µM) | 8 µg/mL (≈ 33.6 µM) | 32 µg/mL (≈ 134 µM) | 16 µg/mL (≈ 67.1 µM) | 8 µg/mL (≈ 33.6 µM)
2 | CCn1cc(C(=O)O)c(=O)c2cc(F)c(N3CCNCC3)cc21 [NORFLOXACIN] | 32 µg/mL (≈ 100 µM) | 128 µg/mL (≈ 401 µM) | 0.5 µg/mL (≈ 1.57 µM) | 8 µg/mL (≈ 25.1 µM) | 0.5 µg/mL (≈ 1.57 µM) | 0.5 µg/mL (≈ 1.57 µM)
3 | CCC(C)C(=O)c1c(O)cc(OC)c(C)c1O (stereo not drawn) [ASPIDINOL D] | 4 µg/mL (≈ 16.8 µM) | 4 µg/mL (≈ 16.8 µM) | 4 µg/mL (≈ 16.8 µM) | 8 µg/mL (≈ 33.6 µM) | 8 µg/mL (≈ 33.6 µM) | 8 µg/mL (≈ 33.6 µM)
